Source: patent US11013232B2, “Hydrotesting and mothballing composition and method of using combination products for multifunctional water treatment” (priority 2014, dated 2021)

Tests used:
[1] = system: General Heterotrophic Bacteria (GHB); assay: Most Probable Number (MPN) bacterial kill efficacy, GHB; format: cell-based, mixed consortia isolated from seawater; settings: first MPN set; for GHB per mL: formulation with ammonium bisulfide, 500 ppm active biocide
Procedure: (§1) The Most Probably Number technique using a bacterial enumeration technique was performed, as described in NACE International Standard TMP 194-2004. Complex mixed consortia were isolated from seawater and subjected to the chemicals being tested. All chemicals were applied at the same active concentration. Surviving cells were assayed after exposure periods of 1, 7 and 28 days to the numbers compared with a control which received no treatments. The bottle tests were carried out using two mixed consortia—Sulfate Reducing Bacteria (SRB) and General Heterotrophic Bacteria (GHB) that also measured Acid Producing Bacteria (APB) enriched from seawater. Aliquots of the water (1 mL) were inoculated into SRB culture medium and GHB culture medium (Phenol Red Dextrose broth) respectively and sub-cultured twice. The cultures used in the tests were incubated at 30° C. for five days; these were then used to supplement seawater to achieve 10^3 to 10^4 SRB cells per mL. For the trial one control bottle and four test bottles were set up. The chemicals were added to the appropriate test bottles to give the final concentrations of each product as supplied. All chemicals were added so that 500 ppm of active biocide was present in each test. The control bottle contained seawater only with no added chemical.
(§2) At each time point, (one, seven and twenty-eight days), a sample was removed from each test bottle and the control bottle and used to inoculate the MPN vials. Bacterial counts were performed using the triplicate Most Probable Number method (triplicate MPNs). The inoculated MPN vials were incubated at 30° C. for 7 days for GHB and APB and 28 days for SRB. Results have been reported as cells per mL. […]

[2] = system: Sulfate Reducing Bacteria (SRB); assay: Most Probable Number (MPN) bacterial kill efficacy, SRB; format: cell-based, mixed consortia isolated from seawater; settings: first MPN set; for SRB per mL: formulation with ammonium bisulfide, 500 ppm active biocide
Procedure: as §1, §2

[3] = system: Acid Producing Bacteria (APB); assay: Most Probable Number (MPN) bacterial kill efficacy, APB; format: cell-based, mixed consortia isolated from seawater; settings: first MPN set; for APB per mL: formulation with ammonium bisulfide, 500 ppm active biocide
Procedure: as §1, §2

[4] = Oxygen scavenging efficacy (real-time orbisphere oxygen sensor); settings: 500 ppm
Procedure: Oxygen scavenging efficacy was evaluated using a real-time orbisphere oxygen sensor with data logging. The test equipment consisted of a stirrer plate and stirrer bar, a 1 liter test cell, circulation pump, flow chamber, oxygen sensor and data logger. Test work was performed using potable water taken from the mains water supply in The Woodlands, Tex. and then using filtered seawater taken from Galveston, Tex. Testing was performed at 4° C. and 25° C. by wrapping the test cell with a monoethylene glycol circulator chiller jacket. A carbon steel stirrer bar was added to the test cell to replicate turbulence that would be created upon pumping the hydrotest fluid using the metallurgy of a typical pipeline. A non-pulsing circulation pump was set to circulate the test fluid past the oxygen sensor at a rate of 10 mL·min^−1. The oxygen sensor was calibrated prior to every new test run. Each test was run for a duration of 60 minutes with a 10 minute stabilization period prior to the introduction of test chemical. Chemical was injected into the test cell by means of a needle and syringe through a rubber stopper to minimize any oxygen ingress during this stage of the test. Throughout the test, oxygen levels were measured once every minute and the data continuously logged.
All tests of the new formulations (detailed in Table 1) were benchmarked against has 50% ADMAC (specifically […]), 30% ammonium bisulfite and 20% water, herein referenced as Formulation 3 and detailed in Table 1. Furthermore ammonium bisulfite was used as a benchmark and the activity matched up to 30% which is the concentration used in all the formulations. Therefore all testing had the same concentration of oxygen scavenging component with the only variable being the other components of the formulation.
It should be noted that all testing was performed so that the concentration of oxygen scavenger was exactly the same in all tests so the only variables were the counter components in the formulations, this isolating the effects that combining components has upon the oxygen scavenging efficacy of the invented products. Therefore all formulations were added at 500 ppm. […] Furthermore, adding a dye into the formulation as well as the DDAC and DDABC, as is the case with Formulation 1, has no further negative effects on oxygen scavenging efficacy. It should be noted that scavenging in relatively warm seawater is not a very challenging environment to perform this testing in.

SMILES: CC1(C)C(=O)N(CO)C(=O)N1CO [DMDM hydantoin, 1,3-Bis(hydroxymethyl)-5,5-dimethylimidazoline-2,4-dione]
- GHB per mL ([1]; 24 h exposure): 9.5E+03 cells per mL
- GHB per mL ([1]; 7 d exposure): 9.5E+05 cells per mL
- GHB per mL ([1]; 28 d exposure): 2.5E+05 cells per mL
- log reduction of planktonic GHB ([1]; exposure time of 24 hours): 1 log
- SRB per mL ([2]; 24 h exposure): 9.5E+04 cells per mL
- SRB per mL ([2]; 7 d exposure): 9.5E+02 cells per mL
- SRB per mL ([2]; 28 d exposure): 4.5E+06 cells per mL
- log reduction of planktonic SRB ([2]; exposure time of 24 hours): no effect
- APB per mL ([3]; 24 h exposure): 4.5E+02 cells per mL
- APB per mL ([3]; 7 d exposure): 2.5E+02 cells per mL
- APB per mL ([3]; 28 d exposure): 9.5E+04 cells per mL
- log reduction of APB numbers ([3]; exposure time of 24 hours): no effect

SMILES: N.O=S(O)O [ABS 30%, ammonium bisulfite]
- Oxygen level (ppm O2) ([4]; fresh water, 25° C., time 0 minutes (stabilization before chemical injection)): 8.314 ppm O2
- Oxygen level (ppm O2) ([4]; fresh water, 25° C., time 2 minutes (stabilization before chemical injection)): 8.346 ppm O2
- Oxygen level (ppm O2) ([4]; fresh water, 25° C., time 4 minutes (stabilization before chemical injection)): 8.310 ppm O2
- Oxygen level (ppm O2) ([4]; fresh water, 25° C., time 6 minutes (stabilization before chemical injection)): 8.265 ppm O2
- Oxygen level (ppm O2) ([4]; fresh water, 25° C., time 8 minutes (stabilization before chemical injection)): 8.345 ppm O2
- Oxygen level (ppm O2) ([4]; fresh water, 25° C., time 10 minutes (end of 10 minute stabilization)): 8.302 ppm O2
- Oxygen level (ppm O2) ([4]; fresh water, 25° C., time 12 minutes): 7.612 ppm O2
- Oxygen level (ppm O2) ([4]; fresh water, 25° C., time 14 minutes): 6.674 ppm O2
- Oxygen level (ppm O2) ([4]; fresh water, 25° C., time 16 minutes): 5.585 ppm O2
- Oxygen level (ppm O2) ([4]; fresh water, 25° C., time 18 minutes): 4.732 ppm O2
- Oxygen level (ppm O2) ([4]; fresh water, 25° C., time 20 minutes): 4.115 ppm O2
- Oxygen level (ppm O2) ([4]; fresh water, 25° C., time 22 minutes): 3.765 ppm O2
- Oxygen level (ppm O2) ([4]; fresh water, 25° C., time 24 minutes): 3.195 ppm O2
- Oxygen level (ppm O2) ([4]; fresh water, 25° C., time 26 minutes): 3.027 ppm O2
- Oxygen level (ppm O2) ([4]; fresh water, 25° C., time 28 minutes): 2.546 ppm O2
- Oxygen level (ppm O2) ([4]; fresh water, 25° C., time 30 minutes): 1.863 ppm O2
- Oxygen level (ppm O2) ([4]; fresh water, 25° C., time 32 minutes): 1.516 ppm O2
- Oxygen level (ppm O2) ([4]; fresh water, 25° C., time 34 minutes): 1.173 ppm O2
- Oxygen level (ppm O2) ([4]; fresh water, 25° C., time 36 minutes): 0.857 ppm O2
- Oxygen level (ppm O2) ([4]; fresh water, 25° C., time 38 minutes): 0.654 ppm O2
- Oxygen level (ppm O2) ([4]; fresh water, 25° C., time 40 minutes): 0.436 ppm O2
- Oxygen level (ppm O2) ([4]; fresh water, 25° C., time 42 minutes): 0.349 ppm O2
- Oxygen level (ppm O2) ([4]; fresh water, 25° C., time 44 minutes): 0.215 ppm O2
- Oxygen level (ppm O2) ([4]; fresh water, 25° C., time 46 minutes): 0.134 ppm O2
- Oxygen level (ppm O2) ([4]; fresh water, 25° C., time 48 minutes): 0.119 ppm O2
- Oxygen level (ppm O2) ([4]; fresh water, 25° C., time 50 minutes): 0.096 ppm O2
- Oxygen level (ppm O2) ([4]; fresh water, 25° C., time 52 minutes): 0.087 ppm O2
- Oxygen level (ppm O2) ([4]; fresh water, 25° C., time 54 minutes): 0.063 ppm O2
- Oxygen level (ppm O2) ([4]; fresh water, 25° C., time 56 minutes): 0.055 ppm O2
- Oxygen level (ppm O2) ([4]; fresh water, 25° C., time 58 minutes): 0.050 ppm O2
- Oxygen level (ppm O2) ([4]; fresh water, 25° C., time 60 minutes): 0.480 ppm O2
- Oxygen level (ppm O2) ([4]; seawater, 4° C., time 0 minutes (stabilization before chemical injection)): 7.554 ppm O2
- Oxygen level (ppm O2) ([4]; seawater, 4° C., time 2 minutes (stabilization before chemical injection)): 7.452 ppm O2
- Oxygen level (ppm O2) ([4]; seawater, 4° C., time 4 minutes (stabilization before chemical injection)): 7.357 ppm O2
- Oxygen level (ppm O2) ([4]; seawater, 4° C., time 6 minutes (stabilization before chemical injection)): 7.268 ppm O2
- Oxygen level (ppm O2) ([4]; seawater, 4° C., time 8 minutes (stabilization before chemical injection)): 7.121 ppm O2
- Oxygen level (ppm O2) ([4]; seawater, 4° C., time 10 minutes (end of 10 minute stabilization)): 6.997 ppm O2
- Oxygen level (ppm O2) ([4]; seawater, 4° C., time 12 minutes): 2.125 ppm O2
- Oxygen level (ppm O2) ([4]; seawater, 4° C., time 14 minutes): 0.454 ppm O2
- Oxygen level (ppm O2) ([4]; seawater, 4° C., time 16 minutes): 0.269 ppm O2
- Oxygen level (ppm O2) ([4]; seawater, 4° C., time 18 minutes): 0.064 ppm O2
- Oxygen level (ppm O2) ([4]; seawater, 4° C., time 20 minutes): 0.047 ppm O2
- Oxygen level (ppm O2) ([4]; seawater, 4° C., time 22 minutes): 0.029 ppm O2
- Oxygen level (ppm O2) ([4]; seawater, 4° C., time 24 minutes): 0.009 ppm O2
- Oxygen level (ppm O2) ([4]; seawater, 4° C., time 26 minutes): 0.003 ppm O2
- Oxygen level (ppm O2) ([4]; seawater, 4° C., time 28 minutes): 0.002 ppm O2
- Oxygen level (ppm O2) ([4]; seawater, 25° C., time 0 minutes (stabilization before chemical injection)): 7.112 ppm O2
- Oxygen level (ppm O2) ([4]; seawater, 25° C., time 2 minutes (stabilization before chemical injection)): 7.081 ppm O2
- Oxygen level (ppm O2) ([4]; seawater, 25° C., time 4 minutes (stabilization before chemical injection)): 7.029 ppm O2
- Oxygen level (ppm O2) ([4]; seawater, 25° C., time 6 minutes (stabilization before chemical injection)): 7.084 ppm O2
- Oxygen level (ppm O2) ([4]; seawater, 25° C., time 8 minutes (stabilization before chemical injection)): 7.066 ppm O2
- Oxygen level (ppm O2) ([4]; seawater, 25° C., time 10 minutes (end of 10 minute stabilization)): 7.061 ppm O2
- Oxygen level (ppm O2) ([4]; seawater, 25° C., time 12 minutes): 0.052 ppm O2
- Oxygen level (ppm O2) ([4]; seawater, 25° C., time 14 minutes): 0.013 ppm O2
- Oxygen level (ppm O2) ([4]; seawater, 25° C., time 16 minutes): 0.010 ppm O2
- Oxygen level (ppm O2) ([4]; seawater, 25° C., time 18 minutes): 0.009 ppm O2
- Oxygen level (ppm O2) ([4]; seawater, 25° C., time 20 minutes): 0.008 ppm O2
- Oxygen level (ppm O2) ([4]; seawater, 25° C., time 22 minutes): 0.007 ppm O2
- Oxygen level (ppm O2) ([4]; seawater, 25° C., time 24 minutes): 0.006 ppm O2
- Oxygen level (ppm O2) ([4]; seawater, 25° C., time 26 minutes): 0.005 ppm O2
- Oxygen level (ppm O2) ([4]; seawater, 25° C., time 28 minutes): 0.004 ppm O2
